Assay [1] concerns the target T1, Cbl-b (Homo sapiens, UniProt Q13191).
T1 construct: Cbl-b-HiBit KI Jurkat Cells were purchased from Promega; host or cells: Cbl-b-HiBiT knock-in Jurkat cells
As to the kind of experiment: Cbl-b Degradation Method A (FACS, anti-Cbl-b antibody staining). Format: cell-based. The conditions noted are these: Cbl-b-HiBit KI Jurkat Cells, incubated at least 20 hours; for DC50: half maximal degradation, read-out: Cbl-b Degredation Method A IC50; for Dmax: Jurkat, read-out: Cbl-b Degredation Method A Dmax (%). Summed up: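 Readout is flow cytometry of fixed, permeabilized cells immunostained for Cbl-b (primary 1:200, AF488 secondary). Cells were Cbl-b-HiBit knock-in Jurkat, exposed to compound ≥20 h at 37 °C; half-maximal degradation concentration (DC50) and maximal degradation (Dmax) calculated relative to control.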

Assay [2] addresses T1, Cbl-b. As to the kind of experiment: Cbl-b Degradation Method B (Nano-Glo HiBiT lytic detection). The format is cell-based. The note with it: Cbl-b-HiBit KI Jurkat Cells, incubated at least 6-24 hours; for DC50: half maximal degradation, read-out: Cbl-b Degredation Method B IC50; for Dmax / Cbl-b Degredation Method B Dmax (%): maximum degradation observed; for Dmax: read-out: Cbl-b Degredation Method B Dmax (%). The procedure, abridged: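 An 11-point, 3-fold compound dilution was applied for 6-24 hours to Jurkat cells carrying HiBiT-tagged endogenous Cbl-b. Lytic HiBiT luminescence quantified residual protein. Outputs are DC50 and Dmax relative to DMSO control.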
(The HiBiT peptide binds its large partner to form an active luciferase.)

One may read the Dmax as the greatest extent of degradation seen.

T1 sequence (Q13191 whole entry): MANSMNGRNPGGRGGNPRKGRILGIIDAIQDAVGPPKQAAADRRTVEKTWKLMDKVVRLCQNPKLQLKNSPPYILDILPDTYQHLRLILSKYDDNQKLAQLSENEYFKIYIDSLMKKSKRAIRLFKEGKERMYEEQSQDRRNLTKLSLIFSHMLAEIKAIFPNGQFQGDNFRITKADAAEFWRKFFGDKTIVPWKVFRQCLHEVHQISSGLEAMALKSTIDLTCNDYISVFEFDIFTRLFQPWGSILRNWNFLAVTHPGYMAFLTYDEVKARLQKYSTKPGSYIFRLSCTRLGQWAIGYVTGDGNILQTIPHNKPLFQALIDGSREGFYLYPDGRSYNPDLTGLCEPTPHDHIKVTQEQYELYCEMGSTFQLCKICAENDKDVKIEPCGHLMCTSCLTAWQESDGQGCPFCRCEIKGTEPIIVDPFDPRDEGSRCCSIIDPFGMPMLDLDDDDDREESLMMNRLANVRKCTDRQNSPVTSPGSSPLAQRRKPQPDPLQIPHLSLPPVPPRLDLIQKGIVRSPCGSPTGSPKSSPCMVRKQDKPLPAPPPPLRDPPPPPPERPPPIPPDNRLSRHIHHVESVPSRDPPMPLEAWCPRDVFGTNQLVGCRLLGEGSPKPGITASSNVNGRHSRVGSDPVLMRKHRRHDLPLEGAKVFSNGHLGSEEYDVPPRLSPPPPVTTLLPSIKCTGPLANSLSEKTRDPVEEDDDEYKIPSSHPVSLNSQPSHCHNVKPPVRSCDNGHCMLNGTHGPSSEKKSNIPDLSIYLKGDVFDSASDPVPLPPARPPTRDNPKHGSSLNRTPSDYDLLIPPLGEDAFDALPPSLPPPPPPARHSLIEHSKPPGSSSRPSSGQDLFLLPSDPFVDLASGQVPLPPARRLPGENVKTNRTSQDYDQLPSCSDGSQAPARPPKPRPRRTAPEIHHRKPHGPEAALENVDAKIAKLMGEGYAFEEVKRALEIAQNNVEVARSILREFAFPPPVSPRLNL

`Cn1cnnc1CC1(c2cccc(N3Cc4c(cc(CN5CCC[C@H](CN6CCC(CN7CCC(CN8CCN(c9ccc%10c(c9)C(=O)N(C9CCC(=O)NC9=O)C%10=O)CC8)CC7)CC6)C5)cc4C(F)(F)F)C3=O)c2)COC1` (stereo partly drawn) [Example 97, 2-(2,6-dioxopiperidin-3-yl)-5-[4-({1-[(1-{[(3R)-1-{[2-(3-{3-[(4-methyl-4H-1,2,4-triazol-3-yl)methyl]oxetan-3-yl}phenyl)-3-oxo-7-(trifluoromethyl)-2,3-dihydro-1H-isoindol-5-yl]methyl}piperidin-3-yl]methyl}piperidin-4-yl)methyl]piperidin-4-yl}methyl)piperazin-1-yl]-2,3-dihydro-1H-isoindole-1,3-dione]: the DC50 in assay [1] is 5 to 50 nM; in assay [2], < 5 nM. The Dmax is > 70% in assay [1] (maximum degradation observed) and 35 to 70% in assay [2].
On to `Cn1cnnc1CC1(c2cccc(N3Cc4c(cc(N5CC6(CC(CCOc7ccc8c(c7)C(=O)N(C7CCC(=O)NC7=O)C8=O)C6)C5)cc4C(F)(F)F)C3=O)c2)COC1` (stereo not drawn) [Example 20, 2-(2,6-dioxo-3-piperidyl)-5-[2-[2-[2-[3-[3-[(4-methyl-1,2,4-triazol-3-yl)methyl]oxetan-3-yl]phenyl]-3-oxo-7-(trifluoromethyl)isoindolin-5-yl]-2-azaspiro[3.3]heptan-6-yl]ethoxy]isoindoline-1,3-dione], for which the DC50 in assay [1] and in assay [2] was > 500 nM each time.
With `Cc1cc(N2CCC(CN3CCC4(CC3)CN(c3cc5c(c(C(F)(F)F)c3)CN(c3cccc([C@]6(Cc7nncn7C)C[C@@H](C#N)C6)c3)C5=O)C4)CC2)c(F)c2c1C(=O)N(C1CCC(=O)NC1=O)C2` (stereo partly drawn) [Example 171, (1r,3r)-3-(3-{6-[7-({1-[2-(2,6-dioxopiperidin-3-yl)-4-fluoro-7-methyl-1-oxo-2,3-dihydro-1H-isoindol-5-yl]piperidin-4-yl}methyl)-2,7-diazaspiro[3.5]nonan-2-yl]-1-oxo-4-(trifluoromethyl)-2,3-dihydro-1H-isoindol-2-yl}phenyl)-3-[(4-methyl-4H-1,2,4-triazol-3-yl)methyl]cyclobutane-1-carbonitrile], the figures for the DC50 in assay [1] and in assay [2] were 5 to 50 nM and < 5 nM, respectively. The Dmax in assay [1] (maximum degradation observed) is > 70%; in assay [2] it was 35 to 70%.
In the case of `Cn1cnnc1CC1(c2cccc(N3Cc4c(cc(N5CC6(CCN(c7ccc8c(c7)C(=O)N(C7CCC(=O)NC7=O)C8=O)C6)C5)cc4C(F)(F)F)C3=O)c2)COC1` (stereo not drawn) [Example 126, 2-(2,6-dioxopiperidin-3-yl)-5-{2-[2-(3-{3-[(4-methyl-4H-1,2,4-triazol-3-yl)methyl]oxetan-3-yl}phenyl)-3-oxo-7-(trifluoromethyl)-2,3-dihydro-1H-isoindol-5-yl]-2,6-diazaspiro[3.4]octan-6-yl}-2,3-dihydro-1H-isoindole-1,3-dione], the DC50 in assay [1] and in assay [2] was > 500 nM in each case.
For `Cn1cnnc1CC1(c2cccc(N3Cc4c(cc(CN5CCC(N6CCC7(CCN(c8ccc9c(c8)C(=O)N(C8CCC(=O)NC8=O)C9=O)CC7)CC6)CC5)cc4C(F)(F)F)C3=O)c2)COC1` (stereo not drawn) [Example 100, 2-(2,6-dioxopiperidin-3-yl)-5-[9-(1-{[2-(3-{3-[(4-methyl-4H-1,2,4-triazol-3-yl)methyl]oxetan-3-yl}phenyl)-3-oxo-7-(trifluoromethyl)-2,3-dihydro-1H-isoindol-5-yl]methyl}piperidin-4-yl)-3,9-diazaspiro[5.5]undecan-3-yl]-2,3-dihydro-1H-isoindole-1,3-dione], the DC50 in assay [1] and in assay [2] was > 500 nM in each case. In addition, the Dmax in assay [1] (maximum degradation observed) is < 35%.
For the molecule `C[C@H]1CN(C[C@H]2CC[C@@H](OC3CCN(c4ccc5c(c4F)CN(C4CCC(=O)NC4=O)C5=O)CC3)CC2)CCN1Cc1cc2c(c(C(F)(F)F)c1)CN(c1cccc(C3(Cc4nncn4C)COC3)c1)C2=O` (stereo partly drawn) [Example 194, 3-[4-fluoro-1-oxo-5-(4-{[(1r,4r)-4-{[(3S)-3-methyl-4-{[2-(3-{3-[(4-methyl-4H-1,2,4-triazol-3-yl)methyl]oxetan-3-yl}phenyl)-3-oxo-7-(trifluoromethyl)-2,3-dihydro-1H-isoindol-5-yl]methyl}piperazin-1-yl]methyl}cyclohexyl]oxy}piperidin-1-yl)-2,3-dihydro-1H-isoindol-2-yl]piperidine-2,6-dione], the DC50 in assay [1] and in assay [2] was < 5 nM in each case. In addition, the Dmax was > 70% in assay [1] (maximum degradation observed) and 35 to 70% in assay [2].
Take `CC(C)n1c(=O)n(C2CCC(=O)NC2=O)c2cccc(N3CCC(O[C@H]4CC[C@H](CN5CC6(CCN(Cc7cc8c(c(C(F)(F)F)c7)CN(c7cccc([C@]9(Cc%10nncn%10C)C[C@@H](C#N)C9)c7)C8=O)CC6)C5)CC4)CC3)c21` (stereo partly drawn) [Example 321, (1r,3r)-3-[(4-methyl-4H-1,2,4-triazol-3-yl)methyl]-3-(3-{1-oxo-6-[(2-{[(1r,4r)-4-({1-[1-(2,6-dioxopiperidin-3-yl)-2-oxo-3-(propan-2-yl)-2,3-dihydro-1H-1,3-benzodiazol-4-yl]piperidin-4-yl}oxy)cyclohexyl]methyl}-2,7-diazaspiro[3.5]nonan-7-yl)methyl]-4-(trifluoromethyl)-2,3-dihydro-1H-isoindol-2-yl}phenyl)cyclobutane-1-carbonitrile]: the DC50 in assay [1] lay in the range of 5 to 50 nM. Further, in assay [1] (maximum degradation observed), the Dmax is < 35%. In addition, in assay [2], the DC50 is < 5 nM and the “Cbl-b Degredation Method B Dmax (%)” value is given as “C (C ≤ 35)”.
The corresponding values for `Cn1cnnc1C[C@]1(c2cccc(N3Cc4c(cc(CN5CCN(C[C@H]6CC[C@H](OC7CCN(c8cccc9c8n(C)c(=O)n9C8CCC(=O)NC8=O)CC7)CC6)CC5(C)C)cc4C(F)(F)F)C3=O)c2)C[C@H](C#N)C1` (stereo partly drawn) [Example 301, (1r,3r)-3-(3-{6-[(2,2-dimethyl-4-{[(1r,4r)-4-({1-[1-(2,6-dioxopiperidin-3-yl)-3-methyl-2-oxo-2,3-dihydro-1H-1,3-benzodiazol-4-yl]piperidin-4-yl}oxy)cyclohexyl]methyl}piperazin-1-yl)methyl]-1-oxo-4-(trifluoromethyl)-2,3-dihydro-1H-isoindol-2-yl}phenyl)-3-[(4-methyl-4H-1,2,4-triazol-3-yl)methyl]cyclobutane-1-carbonitrile] are 50 to 500 nM, > 70%, < 5 nM and “C (C ≤ 35)”.
In the case of `CC(c1cc2c(c(C(F)(F)F)c1)CN(c1cccc(C3(Cc4nncn4C)COC3)c1)C2=O)N1CCN(C[C@H]2CC[C@H](OC3CCN(c4ccc5c(c4F)CN(C4CCC(=O)NC4=O)C5=O)CC3)CC2)CC1` (single isomer, unassigned) [Example 9, 3-[4-fluoro-1-oxo-5-(4-{[(1r, 4r)-4-[(4-{1-[2-(3-{3-[(4-methyl-4H-1,2,4-triazol-3-yl)methyl]oxetan-3-yl}phenyl)-3-oxo-7-(trifluoromethyl)-2,3-dihydro-1H-isoindol-5-yl]ethyl}piperazin-1-yl)methyl]cyclohexyl]oxy}piperidin-1-yl)-2,3-dihydro-1H-isoindol-2-yl]piperidine-2,6-dione], the DC50 in assay [1] and in assay [2] was < 5 nM each time. The “Cbl-b Degredation Method A Dmax (%)” value in assay [1] (maximum degradation observed) is listed as “B (35 < B < 70)”. Moreover, in assay [2], the “Cbl-b Degredation Method B Dmax (%)” value is on record as “B (35 < B < 70)”.
Regarding `Cn1cnnc1CC1(c2cccc(N3Cc4c(cc(CN5CCC[C@H](CN6CCC(CN7CCC(CN8CCN(c9ccc%10c(c9F)CN(C9CCC(=O)NC9=O)C%10=O)CC8)CC7)CC6)C5)cc4C(F)(F)F)C3=O)c2)COC1` (stereo partly drawn) [Example 74, 3-{4-fluoro-5-[4-({1-[(1-{[(3R)-1-{[2-(3-{3-[(4-methyl-4H-1,2,4-triazol-3-yl)methyl]oxetan-3-yl}phenyl)-3-oxo-7-(trifluoromethyl)-2,3-dihydro-1H-isoindol-5-yl]methyl}piperidin-3-yl]methyl}piperidin-4-yl)methyl]piperidin-4-yl}methyl)piperazin-1-yl]-1-oxo-2,3-dihydro-1H-isoindol-2-yl}piperidine-2,6-dione], the DC50 in assay [1] was 5 to 50 nM; in assay [2], < 5 nM. The Dmax in assay [1] (maximum degradation observed) and in assay [2] was > 70% each time.
Regarding `Cc1cc(N2CCC(O[C@H]3CC[C@H](CN4CCN(Cc5cc6c(c(C(F)(F)F)c5)CN(c5cccc([C@]7(Cc8nncn8C)C[C@H](C#N)C7)c5)C6=O)[C@@H](C)C4)CC3)CC2)c(F)c2c1C(=O)N(C1CCC(=O)NC1=O)C2` (stereo partly drawn) [Example 220, (1r,3r)-3-[3-(6-{[(2S)-2-methyl-4-{[(1r,4r)-4-({1-[2-(2,6-dioxopiperidin-3-yl)-4-fluoro-7-methyl-1-oxo-2,3-dihydro-1H-isoindol-5-yl]piperidin-4-yl}oxy)cyclohexyl]methyl}piperazin-1-yl]methyl}-1-oxo-4-(trifluoromethyl)-2,3-dihydro-1H-isoindol-2-yl)phenyl]-3-[(4-methyl-4H-1,2,4-triazol-3-yl)methyl]cyclobutane-1-carbonitrile], the DC50 was 5 to 50 nM in assay [1] and < 5 nM in assay [2]. Besides, the Dmax in assay [1] (maximum degradation observed) and in assay [2] was > 70% in each case.
